Reference: patent publication US10787465B2, “Lanthanide toolbox for organelle specific molecular imaging with multi-color” (New Life Medicine Technology Company Limited, priority 2017, dated 2020)
pIC50: −log10 of the molar value.

Key:
HeLa cells [1] = experiment: Two-photon confocal in vitro imaging (subcellular localization); format: cell-based, Human; settings: 10 μM; for localization of red emission: two-photon λex=700 nm
Description: Cells were seeded on coverslip in 35-mm culture dishes overnight. And then incubated with HGEu001 or HGEu002 (10 μM) for 6 hours, and the cells were washed by PBS 3 times before imaging. […] Then the unabsorbed complexes were washed out with PBS buffer and the cells were subject to microscopic imaging. The in vitro imaging of HGEu001 and HGEu002 were undertaken on a linear fluorescence microscopy under 375 nm UV light excitation or a confocal laser scanning microscope, Leica TCS SP8, equipped with a Ti:sapphire laser (Libra II, coherent). The excitation beam produced by 690 nm to 1080 nm (fs laser) was focused on the adherent cells through a 63× oil immersion objective.
3D images obtained by the Z-stacks form the two-photon confocal microscopy and the 3D reconstruction was done with built-in programs of Leica TCS SP8 confocal microscope.

QSG-7701 cells = experiment: MTT cell cytotoxicity assay, QSG-7701; format: cell-based, Human; settings: Incubation time = 24 hours
Description: (§1) Human cervical cancer HeLa cells were grown in Dulbecco's Modified Eagle Medium (DMEM). Human lung normal diploid fibroblasts MRC-5 and neuroblastoma cells SK-N-SH were provided by Cell resource center of Shanghai Institute of Biological Sciences, Chinese Academy of Sciences; and cultured in MEM (GIBCO 41500034); Human derived liver cells QSG-7701 cells were grown in RPMI-1640 (GIBCO 31800022); all cells were supplemented with 10% (v/v) fetal bovine serum, 1% penicillin and streptomycin at 37° C. and 5% CO2.
(§2) HeLa, SKA-SH, QSG-7701 or MRC-5 cells treated with testing complexes for 24 hours were further incubated with MTT, 3-(4,5-dimethylthiazol-2-yl)-2 and 5-diphenyltetrazolium bromide (0.5 mg; ml) for 4 hours, to produce formazan during cell metabolism. Then, formazan was thoroughly dissolved by dimethyl sulfoxide (DMSO), and the absorbance of solutions was measured in Bio-Rad iMark microplate reader (570 nm). Quadruplicates were performed. Data analysis and plotting were operated by the GraphPad Prism 5 software.

GFP-IFT88 = experiment: Co-localization imaging with primary cilia marker GFP-IFT88; format: cell-based, Human; settings: HeLa cells, 10 μM, 6 hours, z stack, λex=700 nm
Excerpt: (§3) (a) 3D Co-Localization Imaging of HGEu001 and HGEu002 with Primary Cilia Markers ARTL13B and IFT88.
(§4) Full length ARTL13B (ADP-ribosylation factor-like protein 13B) was PCR amplified from cDNA library and inserted into multiple cloning sites (MCS) of pEGFP-C3 (CLONETECH, #6082-1) using restriction digestion sites of XhoI/EcorI for GFP-ARTL13B expression. […] Plasmid mEmerald-IFT88-N-18 (intraflagellar transport protein 88 homolog) expressing GFP-IFT88 was a gift from Michael Davidson (Addgene plasmid #54125). Plasmids were amplified in E. coli (DH5α) and purified using a StarPrep Plasmid Miniprep Kit (Genstar). Both GFP-ARL13B and GFP-ITF88 for primary cilium tracking were expressed in HeLa cells through lipofectamine2000 (Cat. No.11668-019, Invitrogen) mediated transfection. Briefly, a 3.5 cm dish of HeLa cells (with 70-80% confluent) was transfected with 4 μg DNA plus 4 μL lipotectamine2000 mixture according to the manufacturer instructions. After incubation for 8 hours, 10 μM of HGEu001 or HGEu002 were added and incubated for 6 hours.

[2] = Photophysical studies (absorption, emission, decay lifetime, quantum yield); format: physicochemical
Description: UV-Visible absorption spectra in the spectral range 200 to 1100 nm were recorded by an HP Agilent UV-8453 Spectrophotometer. The emission spectra and the emission decay lifetimes of HGEu001 and HGEu002 were measured by Horiba Fluorolog-3 spectrophotometer and also measured by Edinburgh instrument ELS920 spectrophotometer for cross checking. (Two spectrophotometers are equipped with a 450 W continuous xenon lamp for steady state emission measurement, 60 W xenon flashlamp for emission life time measurement and an UV-Vis PMT detector—Hamamatsu—R928 cooled 216 at −20° C.)
UV-Visible absorption spectra of HGEu001-Coumarin and HGEu001-Por were recorded by an HP Agilent UV-8453 Spectrophotometer. The emission spectra of HGEu001-Coumarin and HGEu001-Por were measured by Horiba Fluorolog-3 spectrophotometer, which was equipped with a 450 W continuous xenon lamp and a UV-Vis PMT detector—Hamamatsu—R928 cooled 216 at −20° C. for steady state emission measurement.

SK-N-SH cells = experiment: MTT cell cytotoxicity assay, SK-N-SH; format: cell-based, Human; settings: Incubation time = 24 hours
Description: as §1, §2

HeLa cells [3] = experiment: MTT cell cytotoxicity assay, HeLa; format: cell-based, Human; settings: Incubation time = 24 hours
Description: as §1, §2

GFP-ARL13B = experiment: Co-localization imaging with primary cilia marker GFP-ARL13B; format: cell-based, Human; settings: HeLa cells, 10 μM
Excerpt: as §3, §4

MRC-5 cells = experiment: MTT cell cytotoxicity assay, MRC-5; format: cell-based, Human; settings: Incubation time = 24 hours
Description: as §1, §2

[4] = tested on: organelles (mitochondria, lysosome and Golgi apparatus); experiment: Co-localization imaging with organelle probes; format: cell-based, Human; settings: HeLa cells, 10 μM, 6 hours, MitoTracker Green FM
Description: (b) Co-Localization Imaging of HGEu001 and HGEu002 with Organelles.
Live cell labeling probes of organelles (mitochondria, lysosome and Golgi apparatus) MitoTracker® Green FM (M-7514), LysoTracker® Green DND-26 (L-7526) and GolgiTracker® Oregon Green (W6748, Wheat Germ Agglutinin) were respectively purchased from ThermoFisher Scientic Inc. and stocked in −20° C.
Three dishes of HeLa cells (1×10^5) were first incubated with 10 μM HGEu001/HGEu002 for 6 hours. Then organelles probes (50 nM, each) were added in parallel to the cells and further incubated for 15 minutes. The cells were washed by PBS 3 times before imaging on the linear fluorescence microscopy. Under the excitation of UV light (375 nm) emission from the channel (610-630 nm) were collected for the emission signals from HGEu001/HGEu002. Under 488 nm blue light excitation, imaging channel in the range between 505 and 555 nm were collected from the emission signal of organelles dyes.

Structure (SMILES): CC(C)(C)NC(=O)CN1CCN(CC(=O)NC(C)(C)C)CCN(Cc2cc(C#Cc3ccc(NC(=O)c4ccc(C(F)(F)F)cc4)cc3)ccn2)CCN(CC(=O)NC(C)(C)C)CC1.O.[Cl-].[Cl-].[Cl-].[Eu+3] [HGEu002]
- localization of red emission (HeLa cells [1]; 3 hours incubation): localized in cytoplasm
- localization of red emission (HeLa cells [1]; 6 hours incubation): localized in cytoplasm
- europium emission in the rod-like organelles, three dimensional confocal images (HeLa cells [1]; 6 hours, z stack, excitation at 700 nm): did not show any europium emission in the rod-like organelles
- localization of red emission (HeLa cells [1]; 18 hours incubation): localized in cytoplasm
- localization of red emission (HeLa cells [1]; 24 hours incubation): localized in cytoplasm
- pIC50 (QSG-7701 cells): 3.39
- merged emission on co-staining with GFP-IFT88, three dimensional imaging (GFP-IFT88): did not show merged yellow in vitro emission
- τ(D2O), europium emission decay lifetime ([2]; D2O, λem = 614 nm, 5D0→7F2, λex = 340 nm): 1.78 ms
- τ(H2O), europium emission decay lifetime ([2]; H2O, λem = 614 nm, 5D0→7F2, λex = 340 nm): 0.56 ms
- ε (absorption coefficient) ([2]; in H2O, 298K): 22200 M⁻¹ cm⁻¹
- λmax (absorption) ([2]; in H2O, 298K): 327 nm
- ΦL^Eu, overall europium emission quantum yield ([2]; in H2O, by integrated sphere): 10.3%
- q, derived hydration number ([2]; q (±20%), from k(H2O) and k(D2O)): 0.9
- pIC50 (SK-N-SH cells): 3.36
- pIC50 (HeLa cells [3]): 3.38
- overlap of red emission with green emission of GFP-ARL13B (merged images) (GFP-ARL13B; 6 hour incubation after GFP transfection): only slight yellow emission can be found in their merged images
- merged emission on co-staining with GFP-ARL13B, three dimensional imaging (GFP-ARL13B; 6 hours, z stack, λex=700 nm): did not show merged yellow in vitro emission
- pIC50 (MRC-5 cells): 3.40
- merged emission with green mito-tracker, three dimensional imaging [4]: did not show merged yellow in vitro emission
